Experiments:
Aromatase = target: T1, Aromatase (Homo sapiens, UniProt P11511); assay: Inhibition of human aromatase assessed as reduction in fluorescence intensity preincubated with NADPH regenerating system for 10 mins followed by substrate addition incubated for 60 mins by fluorescence based microplate reader analysis
T1 sequence (P11511 whole entry): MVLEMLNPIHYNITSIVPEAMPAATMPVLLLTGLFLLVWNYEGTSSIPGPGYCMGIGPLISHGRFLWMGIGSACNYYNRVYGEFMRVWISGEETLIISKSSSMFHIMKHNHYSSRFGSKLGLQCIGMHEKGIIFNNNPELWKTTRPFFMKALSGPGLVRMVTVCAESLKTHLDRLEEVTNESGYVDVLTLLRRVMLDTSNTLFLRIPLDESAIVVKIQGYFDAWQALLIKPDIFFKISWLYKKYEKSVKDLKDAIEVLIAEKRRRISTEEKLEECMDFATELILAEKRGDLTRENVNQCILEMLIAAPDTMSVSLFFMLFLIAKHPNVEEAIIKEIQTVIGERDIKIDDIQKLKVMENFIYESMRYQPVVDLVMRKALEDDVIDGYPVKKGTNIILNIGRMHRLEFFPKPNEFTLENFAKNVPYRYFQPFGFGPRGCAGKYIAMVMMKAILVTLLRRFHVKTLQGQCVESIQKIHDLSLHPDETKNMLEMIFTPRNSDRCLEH

MCF7 = assay: Antiproliferative activity against human MCF7 cells assessed as reduction in cell viability after 72 hrs by cell counter method; format: functional, cell-based; conditions: MCF7, 72 h
MCF-10A = assay: Antiproliferative activity against human MCF-10A cells assessed as reduction in cell viability after 72 hrs by cell counter method; format: functional, cell-based
Estrogen receptor = target: T2, Estrogen receptor (Homo sapiens, UniProt P03372); assay: Binding affinity to human ERalpha measured after 2 hrs by fluorescence polarization plate reader
T2 sequence (P03372 whole entry): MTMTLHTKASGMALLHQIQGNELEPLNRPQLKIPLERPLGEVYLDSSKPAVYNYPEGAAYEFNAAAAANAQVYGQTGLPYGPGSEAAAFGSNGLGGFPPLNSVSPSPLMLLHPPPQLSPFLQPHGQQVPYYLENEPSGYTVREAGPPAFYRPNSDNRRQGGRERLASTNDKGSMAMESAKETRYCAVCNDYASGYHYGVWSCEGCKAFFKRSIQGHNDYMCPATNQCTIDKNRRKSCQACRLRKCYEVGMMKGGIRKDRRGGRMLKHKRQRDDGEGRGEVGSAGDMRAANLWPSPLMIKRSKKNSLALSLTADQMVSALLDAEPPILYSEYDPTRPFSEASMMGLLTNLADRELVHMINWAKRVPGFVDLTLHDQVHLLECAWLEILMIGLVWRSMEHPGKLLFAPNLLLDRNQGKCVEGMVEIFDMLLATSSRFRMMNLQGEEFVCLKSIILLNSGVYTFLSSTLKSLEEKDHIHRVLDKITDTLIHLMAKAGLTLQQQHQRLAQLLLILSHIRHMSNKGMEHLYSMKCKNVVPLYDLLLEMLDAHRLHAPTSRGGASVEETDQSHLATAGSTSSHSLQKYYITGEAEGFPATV

Compound | IC50 (Aromatase) [µM] | IC50 (MCF7) [µM] | IC50 (MCF-10A) [µM] | IC50 (Estrogen receptor) [µM]
CC/C(=C(\c1ccc(O)cc1)c1ccc(OCCNC)cc1)c1ccccc1 [ENDOXIFEN] | > 10 | 0.1 | > 10 | 0.03
CCC(=C(c1ccc(O)cc1)c1ccc(O)cc1)c1cccnc1 | 1.25 | 10 | 17 | > 10
CCC(CCc1cccnc1)=C(c1ccc(O)cc1)c1ccc(O)cc1 | 0.9 | 42.1 | 20 | 0.033
CC(Cn1ccnc1)=C(c1ccc(O)cc1)c1ccc(O)cc1 | 1 | 37 | 52.5 | 4.95
CC(CCc1c[nH]cn1)=C(c1ccc(O)cc1)c1ccc(O)cc1 | 0.063 | 39.8 | 50.4 | 1.74
CC(=C(c1ccc(O)cc1)c1ccc(O)cc1)c1cccnc1 | > 10 | 5.3 | 41.7 | 0.076
CCC(Cn1ccnc1)=C(c1ccc(O)cc1)c1ccc(O)cc1 | 0.035 | 24.3 | 34.7 | 1.8
CC(=C(c1ccc(O)cc1)c1ccc(O)cc1)c1c[nH]cn1 | 0.596 | 58 | > 100 | 0.223
CC(CCc1cccnc1)=C(c1ccc(O)cc1)c1ccc(O)cc1 | 3.24 | > 100 | > 100 | 0.313
N#Cc1ccc(C(c2ccc(C#N)cc2)n2cncn2)cc1 [LETROZOLE] | – | 4.1 | > 10 | > 10
CCC(=C(c1ccc(O)cc1)c1ccc(O)cc1)c1c[nH]cn1 | 0.952 | 60 | > 100 | 1.07
CC(Cc1cccnc1)=C(c1ccc(O)cc1)c1ccc(O)cc1 | 0.861 | 41.2 | 58.7 | 1.77
CCC(CCc1c[nH]cn1)=C(c1ccc(O)cc1)c1ccc(O)cc1 | 0.052 | 37.1 | > 100 | 0.197
CCC(Cc1cccnc1)=C(c1ccc(O)cc1)c1ccc(O)cc1 | 0.023 | 27.6 | > 100 | 0.019
